Assay results from patent US20080058269A1, “Insulin Releasing Peptides” (priority 2003, published 2008).
Read-outs that look alike come from different tables or passages of the source.

What was measured:
BRIN-BD11 cells [1] = format: cell-based, rat; conditions: for Insulin secretion (ng/10^6 cells/20 min), Control: addition alone without peptide: verapamil 50 μM or KCl 30 mM; for Insulin-releasing action in the presence of verapamil (in words): 50 μM verapamil, calcium channel blocker; for Insulin-releasing action in cells depolarised with KCl (in words): 30 mM KCl; for Insulin secretion (ng/10^6 cells/20 min): 8 observations
Experimental: (§1) Culture of insulin-secreting cells: Clonal rat insulin-secreting BRIN-BD11 cells were cultured in RPMI-1640 tissue culture medium containing 10% (v/v) fetal calf serum, 1% (v/v) antibiotics (100 U/ml penicillin, 0.1 mg/ml streptomycin) and 11.1 mM glucose. The production and characterisation of BRIN-BD11 cells are described elsewhere. Cells were maintained in sterile tissue culture flasks (Corning, Glass Works, UK) at 37° C. in an atmosphere of 5% CO2 and 95% air using LEEC incubator (Laboratory Technical Engineering, Nottingham, UK). In three experimental series using purified peptides from Agalychnis calcarifer, Bombina variegata and Rana saharica cells were cultured overnight with 25 μM forskolin, 10 nM PMA or 0.1 μg/ml pertussis toxin prior to acute tests.
Acute insulin release studies: Insulin release from BRIN-BD11 cells was determined using cell monolayers [McClenaghan N H, Barnett C R, Ah-Sing E, Abdel-Wahab Y H, O'Harte F P, Yoon T W, Swanston-Flatt S K and Flatt P R 1996 Characterization of a novel glucose-responsive insulin-secreting cell line, BRIN-BD11, produced by electrofusion. Diabetes 45 1132-1140]. The cells were harvested with the aid of trypsin/EDTA (Gibco), seeded into 24-multiwell plates (Nunc, Rosklide, Denmark) at a density of […] per well, and allowed to attach overnight. Prior to acute test, cells were preincubated for 40 min at 37° C. in a 1.0 ml Krebs Ringer bicarbonate buffer (115 mM NaCl, 4.7 mM KCl, 1.28 MM CaCl2, 1.2 MM KH2PO4, 1.2 mM MgSO4, 10 mM NaHCO3, 5 g/l bovine serum albumin, pH 7.4) supplemented with 1.1 mM glucose. Test incubations were performed for 20 min at 37° C. using the same buffer supplemented with 5.6 mM glucose in the absence (control) and presence of various venom fractions, peaks (equivalent to approx. 25 μl dried HPLC fraction) or test agents as indicated in the Figures. Cell viability after 20 min test incubations was assessed by modified neutral red assay [Hunt S M, Chrzanowska C, Barnnett C R, Brand H N and Fawell J K 1987 A comparison of in vitro cytotoxicity assays and their application to water samples. Alternatives to Laboratory Animals 15 20-29]. After incubation, aliquots of buffer were removed and stored at −20° C. for insulin radiomnimmunoassay [Flatt P R. and Bailey C J 1981 Abnormal plasma glucose and insulin responses in heterozygous lean (ob/+) mice. Diabetologia 20 573-577].

BRIN-BD11 cells [2] = test: Acute insulin release from BRIN-BD11 cells cultured overnight with forskolin, PMA or pertussis toxin; format: cell-based, rat; conditions: acute test at 5.6 mM glucose; for Stimulatory effect on insulin secretion in cells cultured overnight with PMA: 10 nM PMA overnight (protein kinase C pathway); for Stimulatory effect on insulin secretion in cells cultured overnight with pertussis toxin: 0.1 μg/ml pertussis toxin overnight (G-protein pathway); for Stimulatory effect on insulin secretion in cells cultured overnight with forskolin: 25 μM forskolin overnight (desensitised cyclic AMP-protein kinase A pathway)
Experimental: FIG. 8 illustrates the dependence of the stimulatory effects of 1653.2 Da purified peptide (peak 1.10) from Agalychnis calcarifer on intracellular pathways mediated by protein kinase A (forskolin), protein kinase C (PMA) or pertussis toxin-sensitive G-proteins. Legend: Acute effects of the 13 amino acid 1653.2 Da purified peptide (peak 1.10) from Agalychnis calcarifer on forskolin and PMA on insulin secretion from BRIN-BD11 cells cultured overnight in the absence (control) and presence of 25 μM forskolin, 10 nM PMA or 0.1 μg/ml pertussis toxin. Acute incubations were performed at 5.6 mM glucose. Values are the mean ±SEM for 8 separate observations. ***P<0.001 compared with 5.6 mM glucose alone under same culture conditions. ^ΔΔΔp<0.001 compared with respective test reagent following control culture.
FIG. 9 illustrates the dependence of the stimulatory effects of 1641.7 Da, 1662.6 Da, 1619.8 Da and 1650.5 Da purified peptides (peaks 21, 22, 23 and 24) from Bombina variegata on intracellular pathways mediated by protein kinase A (forskolin), protein kinase C (PMA) or pertussis toxin-sensitive G-proteins. Legend: Acute effects of 1641.7, 1662.6, 1619.8 and 1650.5 Da purified peptides (peaks 21, 22, 23 and 24) from Bombina variegata on forskolin and PMA on insulin secretion from BRIN-BD11 cells cultured overnight in the absence (control) and presence of 25 μM forskolin, 10 nM PMA or 0.1 μg/ml pertussis toxin. Acute incubations were performed at 5.6 mM glucose. Values are the mean ±SEM for 8 separate observations. **P<0.001 compared with 5.6 mM glucose alone under same culture conditions. ^ΔP<0.001 compared with respective test reagent following control culture.
FIG. 10 illustrates the dependence of the stimulatory effects of 4920.4 Da and 4801.2 Da purified peptides (peaks 5.1 and 5.4) from Rana saharica on intracellular pathways mediated by protein kinase A (forskolin), protein kinase C (PMA) or pertussis toxin-sensitive G-proteins. Legend: Acute effects of 4920.4 and 4801.2 Da purified peptides (peaks 5.1 and 5.4) from Rana saharica on forskolin and PMA on insulin secretion from BRIN-BD11 cells cultured overnight in the absence (control) and presence of 25 μM forskolin, 10 nM PMA or […] pertussis toxin. Acute incubations were performed at 5.6 mM glucose. Values are the mean ±SEM for 8 separate observations. ***P<0.001 compared with 5.6 mM glucose alone under same culture conditions. ^ΔΔP<0.001 compared with respective test reagent following control culture.
as §1
Acute insulin release studies: Insulin release from BRIN-BD11 cells was determined using cell monolayers [McClenaghan N H, Barnett C R, Ah-Sing E, Abdel-Wahab Y H, O'Harte F P, Yoon T W, Swanston-Flatt S K and Flatt P R 1996 Characterization of a novel glucose-responsive insulin-secreting cell line, BRIN-BD11, produced by electrofusion. Diabetes 45 1132-1140]. The cells were harvested with the aid of trypsin/EDTA (Gibco), seeded into 24-multiwell plates (Nunc, Rosklide, Denmark) at a density of […] per well, and allowed to attach overnight. […]

[3] = peptides from Phyllomedusa trinitatis, 5.6 mM glucose, no-peptide control 1.47 ± 0.04
[4] = peptides from Rana saharica, 5.6 mM glucose, mean ± SEM, 3 observations, no-peptide control 1.87 ± 0.06
[5] = peptides from Agalychnis litodryas, 5.6 mM glucose, mean ± SEM, 3 observations, no-peptide control 1.95 ± 0.16
[6] = Table 10, no addition, 5.6 mM glucose, control 1.69 ± 0.17
[7] = Table 10, peptide plus KCl (30 mM), 5.6 mM glucose
[8] = Table 10, peptide plus verapamil (50 μM), 5.6 mM glucose

[Cl-].[K+] [KCl, reference compound]
Insulin secretion (ng/10^6 cells/20 min), Control (BRIN-BD11 cells [1]; Table 8, 5.6 mM glucose): 5.32 ± 0.38 ΔΔΔ ng/10^6 cells/20 min | Insulin secretion (ng/10^6 cells/20 min), Control (BRIN-BD11 cells [1]; Table 9, 5.6 mM glucose): 5.33 ± 0.38ΔΔΔ ng/10^6 cells/20 min | Insulin secretion (ng/10^6 cells/20 min), Control (BRIN-BD11 cells [1]; Table 10, 5.6 mM glucose): 5.33 ng/10^6 cells/20 min

CCCCCCCCCCCCCC(=O)O[C@@H]1[C@@H](C)[C@@]2(O)[C@@H](C=C(CO)C[C@]3(O)C(=O)C(C)=C[C@@H]23)[C@@H]2C(C)(C)[C@]12OC(C)=O [PMA, reference compound]
Stimulatory effect on insulin secretion in cells cultured overnight with PMA (BRIN-BD11 cells [2]): abolition

ALSILRGLEKLAKMGIALTNCKATKKC [Peptide 3.8, 2873.5 Da peptide from Rana palustris, 46% ID to Brevinin-1]
Insulin release (ng/10^6 cells/20 mins) (BRIN-BD11 cells [1]; peptides from Rana palustris, 5.6 mM glucose, no-peptide control 1.467 ± 0.04): 2.48 ± 0.44 ng/10^6 cells/20 mins

ALWKDILKNVGKAAGKAVLNTVTDMVNQ [Peptide 2.10, peptide from Phyllomedusa trinitatis, 100% ID to Dermaseptin B IV precursor]
Insulin release (ng/10^6 cells/20 mins) (BRIN-BD11 cells [1]; [3]): 2.356 ± 0.34 ng/10^6 cells/20 mins

AVITGACERDVQCGGGTCCAVSLI . . . [Peptide 4.23]
Insulin release (ng/10^6 cells/20 mins) (BRIN-BD11 cells [1]; [4]): 4.25 ± 0.17 ng/10^6 cells/20 mins

AVWKDFLKNIGKAAGKAVLNSVTDMVNE [Peptide 2.9, 3020.0 Da peptide from Agalychnis litodryas, 79% ID to Dermaseptin B IV precursor]
Insulin release (ng/10^6 cells/20 mins) (BRIN-BD11 cells [1]; [5]): 7.46 ± 0.08 ng/10^6 cells/20 mins

FLPIIAGVAAKVFPKIFCAISKKC [Peptide 4.1, peptide from Rana pipiens identical to pipinin-1]
Insulin release (ng/10^6 cells/20 mins) (BRIN-BD11 cells [1]; peptides from Rana pipiens, 5.6 mM glucose, mean ± SEM, 3 observations, no-peptide control 2.76 ± 0.13): 4.15 ± 0.01 ng/10^6 cells/20 mins

FLPLLAGLAANFLPKIFCKITRKC [Peptide 8.3, peptide from Rana saharica matching Brevinin-1E]
Insulin release (ng/10^6 cells/20 mins) (BRIN-BD11 cells [1]; [4]): 3.53 ± 0.06 ng/10^6 cells/20 mins

GIFSKFGRKKIKNLLISGLKNVGKEVGMDVVRTGIDIAGCKIKGEC [Peptide 5.1, peptide from Rana saharica, 98% ID to Esculentin-1]
Stimulatory effect on insulin secretion in cells cultured overnight with PMA (BRIN-BD11 cells [2]): abolished | Stimulatory effect on insulin secretion in cells cultured overnight with pertussis toxin (BRIN-BD11 cells [2]): abolished | Stimulatory effect on insulin secretion in cells cultured overnight with forskolin (BRIN-BD11 cells [2]): abolished | Insulin-releasing action in the presence of verapamil (in words) (BRIN-BD11 cells [1]): not inhibited | Insulin-releasing action in cells depolarised with KCl (in words) (BRIN-BD11 cells [1]): clearly evident | Insulin secretion (ng/10^6 cells/20 min) (BRIN-BD11 cells [1]; [6]): 2.96 ± 0.32 ng/10^6 cells/20 min | Insulin secretion (ng/10^6 cells/20 min) (BRIN-BD11 cells [1]; [7]): 10.11 ± 0.81ΔΔΔ*** ng/10^6 cells/20 min | Insulin secretion (ng/10^6 cells/20 min) (BRIN-BD11 cells [1]; [8]): 2.88 ± 0.28 ng/10^6 cells/20 min | Insulin release (ng/10^6 cells/20 mins) (BRIN-BD11 cells [1]; [4]): 3.32 ± 0.22 ng/10^6 cells/20 mins

GIFSKLAGKKLKNLLISGLKNVGKEVGMDVVRTGIDIAGCKIKGEC [Peptide 5.4, peptide from Rana saharica matching Esculentin-1B]
Stimulatory effect on insulin secretion in cells cultured overnight with PMA (BRIN-BD11 cells [2]): abolished | Stimulatory effect on insulin secretion in cells cultured overnight with pertussis toxin (BRIN-BD11 cells [2]): abolished | Stimulatory effect on insulin secretion in cells cultured overnight with forskolin (BRIN-BD11 cells [2]): abolished | Insulin-releasing action in the presence of verapamil (in words) (BRIN-BD11 cells [1]): not inhibited | Insulin-releasing action in cells depolarised with KCl (in words) (BRIN-BD11 cells [1]): clearly evident | Insulin secretion (ng/10^6 cells/20 min) (BRIN-BD11 cells [1]; [6]): 2.89 ± 0.19 ng/10^6 cells/20 min | Insulin secretion (ng/10^6 cells/20 min) (BRIN-BD11 cells [1]; [7]): 11.84 ± 0.98ΔΔΔ*** ng/10^6 cells/20 min | Insulin secretion (ng/10^6 cells/20 min) (BRIN-BD11 cells [1]; [8]): 2.79 ± 0.10 ng/10^6 cells/20 min | Insulin release (ng/10^6 cells/20 mins) (BRIN-BD11 cells [1]; [4]): 3.30 ± 0.22 ng/10^6 cells/20 mins

GILLDKLKNFAKTAGKGVLQSLLNTASCKLSGQC [Peptide 6.5, peptide from Rana saharica matching Brevinin-2EC]
Insulin release (ng/10^6 cells/20 mins) (BRIN-BD11 cells [1]; [4]): 5.93 ± 0.47 ng/10^6 cells/20 mins

GILSTIKDFAIKAGKGAAKGLLEMASCKLSGQC [Peptide 5.6, 3309.2 Da peptide from Rana saharica, 67% ID to Brevinin-2EB]
Insulin release (ng/10^6 cells/20 mins) (BRIN-BD11 cells [1]; [4]): 2.86 ± 0.37 ng/10^6 cells/20 mins

GKPFYPPPIYPEDM [Peptide 24, peptide from Bombina variegata, 57% ID to tryptophyllin]
Stimulatory effect on insulin secretion in cells cultured overnight with PMA (BRIN-BD11 cells [2]): did not affect | Stimulatory effect on insulin secretion in cells cultured overnight with pertussis toxin (BRIN-BD11 cells [2]): did not affect | Stimulatory effect on insulin secretion in cells cultured overnight with forskolin (BRIN-BD11 cells [2]): abolished | Insulin release (ng/10^6 cells/20 mins) (BRIN-BD11 cells [1]): 4.30 ± 0.20 ng/10^6 cells/20 mins | Insulin-releasing action in the presence of verapamil (in words) (BRIN-BD11 cells [1]): not affected | Insulin-releasing action in cells depolarised with KCl (in words) (BRIN-BD11 cells [1]): clearly evident | Insulin secretion (ng/10^6 cells/20 min) (BRIN-BD11 cells [1]; Table 9, no addition, 5.6 mM glucose, control 1.69 ± 0.17): 3.31 ± 0.20 ng/10^6 cells/20 min | Insulin secretion (ng/10^6 cells/20 min) (BRIN-BD11 cells [1]; Table 9, peptide plus KCl (30 mM), 5.6 mM glucose): 15.35 ± 0.41ΔΔΔ*** ng/10^6 cells/20 min | Insulin secretion (ng/10^6 cells/20 min) (BRIN-BD11 cells [1]; Table 9, peptide plus verapamil (50 μM), 5.6 mM glucose): 3.08 ± 0.29 ng/10^6 cells/20 min

IYNAICPCKHCNKCKPGLLAN [Peptide 25, 2300.0 Da peptide from Bombina variegata, no database match]
Insulin release (ng/10^6 cells/20 mins) (BRIN-BD11 cells [1]): 2.39 ± 0.30 ng/10^6 cells/20 mins

KGAAKGLLEVASCKLSKSC [Peptide 4.22, 1892.6 Da peptide from Rana saharica, 68.4% ID to Rugosin A]
Insulin release (ng/10^6 cells/20 mins) (BRIN-BD11 cells [1]; [4]): 3.47 ± 0.40 ng/10^6 cells/20 mins

MLADVFEKIMGD . . . [Peptide 1.7]
Insulin release (ng/10^6 cells/20 mins) (BRIN-BD11 cells [1]; [5]): 4.22 ± 0.48 ng/10^6 cells/20 mins

XXPLAPFFQAVFK . . . [Peptide 1.8]
Insulin release (ng/10^6 cells/20 mins) (BRIN-BD11 cells [1]; [3]): 2.48 ± 0.37 ng/10^6 cells/20 mins
